Test results published in patent US9212168B2 (priority 2011, dated 2015).

Assays:
HCV genotype 1b replicon = HCV genotype 1b replicon assay (Renilla luciferase readout); type: cell-based, hepatitis C virus; settings: for Genotype 1b: HCV genotype 1b replicon; for EC50: Hepatitis C virus, read-out: Genotype 1b
Excerpt: Assay 1: HCV Genotype 1b Replicon Assay
The HCV genotype 1b replicon cell line was obtained from Apath LLC (Brooklyn, N.Y.) (APC144; Huh7 cell background). This subgenomic replicon contains the N-terminus of the HCV core protein fused to the neomycin-resistance selectable marker. The EMCV IRES lies downstream and drives expression of humanized Renilla luciferase fused to the non-structural proteins NS3-NS5B. This cell line was used to determine compound potency using the luciferase activity readout as a measurement of compound inhibition of replicon levels.
Cells were grown at 37° C. in a 5% CO2 humidified incubator in DMEM (Invitrogen) with 10% FBS (HyClone), 1×NEAA (Invitrogen), 1× Pen-Strep (Invitrogen), and 500 μg/mL G418 (Invitrogen). On day 1 of the assay, cells were plated at 10,000 cells/well in white 96-well tissue culture plates (Costar) in 200 μL media lacking G418. Four hours later, once the cells have adhered, the media was removed and replaced with media (no G418) containing dose-responses of test compounds. Compounds were initially diluted in DMSO and then diluted another 200× in media to bring the final DMSO concentration down to 0.5%. The cells were incubated with test compounds for 48 hours. At the end of the incubation period, media and compound were removed from the plates and the luciferase activity was determined using Promega Renilla-Glo reagents.
To analyze the data, the luciferase activity was plotted vs. the compound concentration, and EC50 values were determined from a 4-parameter robust fit model with the GraphPad Prism software package (GraphPad Software, Inc., San Diego, Calif.). Results are expressed as the negative decadic logarithm of the EC50 value, pEC50.
Test compounds having a higher pEC50 value in this assay show greater inhibition of HCV genotype 1b replication.

HCV genotype 1a replicon = HCV genotype 1a replicon assay (NS3 protease activity readout); type: cell-based, hepatitis C virus; settings: for Genotype 1a: HCV genotype 1a replicon; for EC50: Hepatitis C virus, read-out: Genotype 1a, HCV genotype 1a replicon
Procedure, shortened: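 EC50 values came from a 4-parameter robust fit of fluorescence (ex 340, em 509 nm) produced by NS3-specific protease in lysates, assayed with 15 μM FRET substrate for 20 min at 37° C, after 48 or 72 hours of compound exposure (0.5% DMSO) of Huh7.5-derived APC89 genotype 1a replicon cells.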

Structure (SMILES) | Genotype 1b (HCV genotype 1b replicon) | Genotype 1a (HCV genotype 1a replicon) | EC50 (HCV genotype 1b replicon) [pM] | EC50 (HCV genotype 1a replicon) [pM]
COC[C@H]1CN(c2ccc(C(=O)Nc3cc(OC(F)(F)F)c(-c4ccc(-c5c[nH]c([C@@H]6C[C@H](C)CN6C(=O)[C@@H](NC(=O)OC)C6CCOCC6)n5)cc4)cc3Cl)cn2)CCN1C(=O)C(C)(C)C [Example 20-7] | D (D represents pEC50>10 (EC50<0.1 nM)) | D (D represents pEC50>10 (EC50<0.1 nM)) |  | 
COC(=O)N[C@H](C(=O)N1C[C@@H](C)C[C@H]1c1nc(-c2ccc(-c3cc(F)c(NC(=O)c4ccc(N5CCN(C(=O)[C@H]6CC6(C)C)C[C@H]5C)nc4)cc3C(F)(F)F)cc2)c[nH]1)C(C)C [Example 1-5] | D (D represents pEC50>10 (EC50<0.1 nM)) | D (D represents pEC50>10 (EC50<0.1 nM)) |  | 
COCC1(C(=O)N2CCN(c3ccc(C(=O)Nc4cc(OC(F)(F)F)c(-c5ccc(-c6c[nH]c([C@@H]7C[C@H](OC)CN7C(=O)[C@@H](NC(=O)OC)C7CCOCC7)n6)cc5)cc4Cl)cn3)[C@H](C)C2)CC1 [Example 28-21] | D (D represents pEC50>10 (EC50<0.1 nM)) | D (D represents pEC50>10 (EC50<0.1 nM)) |  | 
COC(=O)N[C@H](C(=O)N1C[C@@H](C)C[C@H]1c1nc(-c2ccc(-c3cc(Cl)c(NC(=O)c4ccc(N5CCN(C(=O)C(C)(C)CO)C[C@H]5C)nc4)cc3OC(F)(F)F)cc2)c[nH]1)[C@H](C)OC [Example 13-18] |  |  | < 100 | < 100
COC(=O)N[C@H](C(=O)N1C[C@@H](C)C[C@H]1c1nc(-c2ccc(-c3cc(Cl)c(NC(=O)c4ccc(N5C[C@H](C)N(C(=O)C6CC6)C[C@H]5C)nc4)cc3OC(F)(F)F)cc2)c[nH]1)C(C)C [Example 1-43] | D (D represents pEC50>10 (EC50<0.1 nM)) | D (D represents pEC50>10 (EC50<0.1 nM)) |  | 
COC(=O)N[C@H](C(=O)N1C[C@@H](C)C[C@H]1c1nc(-c2ccc(-c3cc(F)c(NC(=O)c4ccc(N5CCN(C(=O)C(C)(C)C)C[C@H]5C)nc4)cc3OC(F)(F)F)cc2)c[nH]1)C1CCOCC1 [Example 13-22] |  |  | < 100 | < 100
COCC(=O)N1CCC[C@@]1(C)C(=O)N1CCN(c2ccc(NC(=O)c3ccc(-c4ccc(-c5c[nH]c([C@@H]6C[C@H](SC)CN6C(=O)[C@@H](NC(=O)OC)C(C)C)n5)cc4)c(OC(F)(F)F)c3)cn2)[C@H](C)C1 [Example 6-10] |  |  | < 100 | < 100
COC(=O)N[C@H](C(=O)N1C[C@@H](C)C[C@H]1c1nc(-c2ccc(-c3cc(F)c(NC(=O)c4ccc(N5C[C@H](C)N(C(=O)[C@H]6CC6(C)C)C[C@H]5C)nc4)cc3C(F)(F)F)cc2)c[nH]1)C(C)C [Example 1-7] | D (D represents pEC50>10 (EC50<0.1 nM)) | D (D represents pEC50>10 (EC50<0.1 nM)) |  | 
COC(=O)N[C@H](C(=O)N1C[C@@H](C)C[C@H]1c1nc(-c2ccc(-c3cc(F)c(NC(=O)c4ccc(N5CCN(C(=O)[C@H]6CC6(C)C)C[C@H]5C)nc4)cc3OC(F)(F)F)cc2)c[nH]1)C(C)C [Example 1-10] | D (D represents pEC50>10 (EC50<0.1 nM)) | D (D represents pEC50>10 (EC50<0.1 nM)) |  | 
COC(=O)NC(C(=O)N1C[C@@H](C)C[C@H]1c1nc(-c2ccc(-c3cc(Cl)c(NC(=O)c4ccc(N5CCN(C(=O)C(C)(C)C)C[C@H]5C)nc4)cc3C(F)(F)F)cc2)c[nH]1)C1CCS(=O)(=O)CC1 (single isomer, unassigned) [Example 19-6] | D (D represents pEC50>10 (EC50<0.1 nM)) | D (D represents pEC50>10 (EC50<0.1 nM)) |  | 
COC(=O)NC(C(=O)N1CC(OC)CC1c1nc(-c2ccc(-c3cc(Cl)c(NC(=O)c4ccc(N5CCN(C(=O)C(C)(C)C)CC5C)nc4)cc3OC(F)(F)F)cc2)c[nH]1)C(C)OC (centres unmarked) [Example 16-3] | D (D represents pEC50>10 (EC50<0.1 nM)) | D (D represents pEC50>10 (EC50<0.1 nM)) |  | 
COC(=O)N[C@H](C(=O)N1C[C@@H](OC)C[C@H]1c1nc(-c2ccc(-c3cc(F)c(NC(=O)c4ccc(N5CCN(C(=O)C(C)(C)C)C[C@H]5C)nc4)cc3OC(F)(F)F)cc2)c[nH]1)C1CCOCC1 [Example 28-1] | D (D represents pEC50>10 (EC50<0.1 nM)) | D (D represents pEC50>10 (EC50<0.1 nM)) |  | 
CNC(=O)N1CCN(c2ccc(C(=O)Nc3ccc(-c4ccc(-c5c[nH]c([C@@H]6C[C@H](N(C)C)CN6C(=O)[C@@H](NC(=O)OC)C(C)C)n5)cc4)c(C)c3)cn2)[C@H](C)C1 [Example 2-5] | D (D represents pEC50>10 (EC50<0.1 nM)) | C (C represents pEC50 between and 9 and about 10, (EC50 between 1 nM and 0.1 nM)) |  | 
COC(=O)N[C@H](C(=O)N1C[C@@H](OC)C[C@H]1c1nc(-c2ccc(-c3cc(Cl)c(NC(=O)c4ccc(N5CCN(C(=O)[C@]67C[C@H]6CCN7)C[C@H]5C)nc4)cc3OC(F)(F)F)cc2)c[nH]1)C(C)C [Example 27-5] | D (D represents pEC50>10 (EC50<0.1 nM)) | D (D represents pEC50>10 (EC50<0.1 nM)) |  | 
COC(=O)N[C@H](C(=O)N1C[C@@H](C)C[C@H]1c1nc(-c2ccc(-c3ccc(C(=O)Nc4ccc(N5CCN(C(=O)[C@]6(C)CCCN6C(=O)[C@H](NC(=O)OC)C(C)C)C[C@H]5C)nc4)cc3OC(F)(F)F)cc2)c[nH]1)C(C)C [Example 4-7] | D (D represents pEC50>10 (EC50<0.1 nM)) | D (D represents pEC50>10 (EC50<0.1 nM)) |  | 
COC(=O)NC(C(=O)N1C[C@@H](C)C[C@H]1c1nc(-c2ccc(-c3ccc(C(=O)Nc4ccc(N5CCN(C(=O)C(C)(C)C)C[C@H]5C)nc4)c(F)c3OC(F)(F)F)cc2)c[nH]1)C1CCOCC1 (some centres unmarked) [Example 25-2] |  |  | < 100 | < 100
COC(=O)N[C@H](C(=O)N1C[C@@H](C)C[C@H]1c1nc(-c2ccc(-c3cc(Cl)c(NC(=O)c4ccc(N5CCN(C(=O)C6CC(O)C6)C[C@H]5C)nc4)cc3OC(F)(F)F)cc2)c[nH]1)C(C)C (some centres unmarked) [Example 12-47] |  |  | < 100 | < 100
COC[C@H]1C[C@@H](c2nc(-c3ccc(-c4cc(Cl)c(C(=O)Nc5ccc(N6CCN(C(=O)C(C)(C)C)C[C@H]6C)nc5)cc4OC(F)(F)F)cc3)c[nH]2)N(C(=O)[C@@H](NC(=O)OC)C2CCOCC2)C1 [24-6] | D (D represents pEC50>10 (EC50<0.1 nM)) | D (D represents pEC50>10 (EC50<0.1 nM)) |  | 
COCC(=O)N1CCC[C@@]1(C)C(=O)N1C[C@@H](C)N(c2ccc(C(=O)Nc3cc(OC(F)(F)F)c(-c4ccc(-c5c[nH]c([C@@H]6C[C@H](OC)CN6C(=O)[C@@H](NC(=O)OC)C6CCOCC6)n5)cc4)cc3Cl)cn2)C[C@@H]1C [Example 28-17] | D (D represents pEC50>10 (EC50<0.1 nM)) | D (D represents pEC50>10 (EC50<0.1 nM)) |  | 
CCC(=O)N1CCC[C@@H]1C(=O)N1C[C@@H](C)N(c2ccc(NC(=O)c3ccc(-c4ccc(-c5c[nH]c([C@@H]6C[C@H](C)CN6C(=O)[C@@H](NC(=O)OC)C(C)C)n5)cc4)c(OC(F)(F)F)c3)cn2)C[C@@H]1C [Example 4-21] | D (D represents pEC50>10 (EC50<0.1 nM)) | D (D represents pEC50>10 (EC50<0.1 nM)) |  | 
COC(=O)N[C@H](C(=O)N1C[C@@H](C)C[C@H]1c1nc(-c2ccc(-c3cc(F)c(NC(=O)c4ccc(N5C[C@H](C)N(C(=O)[C@H]6CC6(C)C)C[C@H]5C)nc4)cc3OC(F)(F)F)cc2)c[nH]1)C(C)C [Example 1-13] | D (D represents pEC50>10 (EC50<0.1 nM)) | D (D represents pEC50>10 (EC50<0.1 nM)) |  | 
COC(=O)N[C@H](C(=O)N1C[C@@H](OC)C[C@H]1c1nc(-c2ccc(-c3cc(Cl)c(NC(=O)c4ccc(N5CCN(C(=O)[C@H]6CC6(C)C)C[C@H]5C)nc4)cc3OC(F)(F)F)cc2)c[nH]1)C1CCOCC1 [Example 28-11] | D (D represents pEC50>10 (EC50<0.1 nM)) | D (D represents pEC50>10 (EC50<0.1 nM)) |  | 
CNC(=O)N1C[C@@H](C)N(c2ccc(C(=O)Nc3cc(C(F)(F)F)c(-c4ccc(-c5c[nH]c([C@@H]6C[C@H](C)CN6C(=O)[C@@H](NC(=O)OC)C(C)C)n5)cc4)cc3F)cn2)C[C@@H]1C [Example 1-8] | D (D represents pEC50>10 (EC50<0.1 nM)) | D (D represents pEC50>10 (EC50<0.1 nM)) |  | 
COC(=O)NC(C(=O)N1C[C@@H](C)C[C@H]1c1nc(-c2ccc(-c3c(F)cc(NC(=O)c4ccc(N5CCN(C(=O)C(C)(C)C)C[C@H]5C)nc4)cc3F)cc2)c[nH]1)C1CCOCC1 (some centres unmarked) [Example 21-3] |  |  | < 100 | < 100
COCC(=O)N1CCC[C@@]1(C)C(=O)N1CCN(c2ccc(NC(=O)c3ccc(-c4ccc(-c5c[nH]c([C@@H]6C[C@H](C)CN6C(=O)[C@@H](NC(=O)OC)C(C)C)n5)cc4)c(OC(F)(F)F)c3)cn2)[C@H](C)C1 [Example 4-4] | D (D represents pEC50>10 (EC50<0.1 nM)) | D (D represents pEC50>10 (EC50<0.1 nM)) |  | 
